Data taken from PubChem BioAssay AID2060506 (Molecular Pharmacology Branch, DTP, NCI, 2025).

Tested on: 598228-144-R-J1-PDC complex spheroid viability
Experiment: Anticancer human tumor 598228-144-R-J1-PDC patient-derived serous endometrial adenocarcinoma cell line growth inhibition [GQUAD]
Settings: for IC50: curve of first compound; for viability, T/C: stronger effect = lower value
Method in brief: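 Multi-cell-type spheroids of tumor cells with HUVEC and mesenchymal stem cells, treated with drug combinations. Concentrations descend in half-log steps from near clinical Cmax, or from 10 microM where Cmax is unknown; viability read-out.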

[1] = second compound 0.0316 µM, first compound 0.0316 µM
[2] = second compound 0.0316 µM, first compound 0.1 µM
[3] = second compound 0.0316 µM, first compound 0.316 µM
[4] = second compound 0.0316 µM, first compound 1 µM
[5] = second compound 0.0316 µM, first compound 3.16 µM
[6] = second compound 0.0316 µM, first compound 10 µM
[7] = second compound 0.1 µM, first compound 0.0316 µM
[8] = second compound 0.1 µM, first compound 0.1 µM
[9] = second compound 0.1 µM, first compound 0.316 µM
[10] = second compound 0.1 µM, first compound 1 µM
[11] = second compound 0.1 µM, first compound 3.16 µM
[12] = second compound 0.1 µM, first compound 10 µM
[13] = second compound 0.316 µM, first compound 0.0316 µM
[14] = second compound 0.316 µM, first compound 0.1 µM
[15] = second compound 0.316 µM, first compound 0.316 µM
[16] = second compound 0.316 µM, first compound 1 µM
[17] = second compound 0.316 µM, first compound 3.16 µM
[18] = second compound 0.316 µM, first compound 10 µM
[19] = second compound 1 µM, first compound 0.0316 µM
[20] = second compound 1 µM, first compound 0.1 µM
[21] = second compound 1 µM, first compound 0.316 µM
[22] = second compound 1 µM, first compound 1 µM
[23] = second compound 1 µM, first compound 3.16 µM
[24] = second compound 1 µM, first compound 10 µM
[25] = second compound 3.16 µM, first compound 0.0316 µM
[26] = second compound 3.16 µM, first compound 0.1 µM
[27] = second compound 3.16 µM, first compound 0.316 µM
[28] = second compound 3.16 µM, first compound 1 µM
[29] = second compound 3.16 µM, first compound 3.16 µM
[30] = second compound 3.16 µM, first compound 10 µM
[31] = second compound 10 µM, first compound 0.0316 µM
[32] = second compound 10 µM, first compound 0.1 µM
[33] = second compound 10 µM, first compound 0.316 µM
[34] = second compound 10 µM, first compound 1 µM
[35] = second compound 10 µM, first compound 3.16 µM
[36] = second compound 10 µM, first compound 10 µM
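Further: spheroids exposed to the agents for one week before reading.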
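Wherever viability, T/C is given: percent of vehicle DMSO control viability so 100% = untreated growth.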

Compound `O=c1[nH]cc(F)c(=O)[nH]1` + Cc1[nH]c2ccc(F)cc2c1-c1nc2c3cccnc3c3ncccc3c2[nH]1 has an IC50 (second compound 0.0316 µM) greater than 10 µM, an IC50 (second compound 0.1 µM) greater than 10 µM and an IC50 (second compound 0.316 µM) greater than 10 µM. For the same compound, the IC50 (second compound 1 µM) was greater than 10 µM, the IC50 (second compound 3.16 µM) was less than 0.0316 µM and the IC50 (second compound 10 µM) was greater than 10 µM. The viability, T/C [1] was 106%, the viability, T/C [2] was 112% and the viability, T/C [3] was 90.2%. It also gave a viability, T/C [4] of 94.3%, a viability, T/C [5] of 89.6% and a viability, T/C [6] of 81.4%. The viability, T/C [7] was 97.4%, the viability, T/C [8] was 102% and the viability, T/C [9] was 85.1%. The viability, T/C [10] was 109%, the viability, T/C [11] was 91.8% and the viability, T/C [12] was 93.9%. For the same compound, the viability, T/C [13] was 98.6%, the viability, T/C [14] was 99.9% and the viability, T/C [15] was 74.9%. The viability, T/C [16] was 85.8%, the viability, T/C [17] was 70.4% and the viability, T/C [18] was 67.2%. It also gave a viability, T/C [19] of 57.5%, a viability, T/C [20] of 66.9% and a viability, T/C [21] of 58%. It also gave a viability, T/C [22] of 55.5%, a viability, T/C [23] of 54.5% and a viability, T/C [24] of 60.7%. For the same compound, the viability, T/C [25] was 38.1%, the viability, T/C [26] was 39.2% and the viability, T/C [27] was 49.5%. The viability, T/C [28] was 48.1%, the viability, T/C [29] was 48.8% and the viability, T/C [30] was 47%. It also gave a viability, T/C [31] of 66.8%, a viability, T/C [32] of 62.6% and a viability, T/C [33] of 63.8%. For the same compound, the viability, T/C [34] was 60.8%, the viability, T/C [35] was 57.4% and the viability, T/C [36] was 54.2%.
For `COc1ccc([C@@H](O)c2cc(-c3ncnc4cc(N5CCOCC5)ccc34)c(F)cc2Cl)nn1` + CN(C)c1ccc(Nc2c3ccc(NC(=O)CCN4CCCC4)cc3nc3cc(NC(=O)CCN4CCCC4)ccc23)cc1, the IC50 (second compound 0.0316 µM) was 2.6 µM, the IC50 (second compound 0.1 µM) was 3.83 µM and the IC50 (second compound 0.316 µM) was 2.3 µM. The IC50 (second compound 1 µM) was 2.3 µM, the IC50 (second compound 3.16 µM) was 2.46 µM and the IC50 (second compound 10 µM) was 0.79 µM. The viability, T/C [1] was 96.4%, the viability, T/C [2] was 77.6% and the viability, T/C [3] was 73.4%. It also gave a viability, T/C [4] of 68.2%, a viability, T/C [5] of 44% and a viability, T/C [6] of 32.5%. For the same compound, the viability, T/C [7] was 121%, the viability, T/C [8] was 94.4% and the viability, T/C [9] was 90.5%. For the same compound, the viability, T/C [10] was 68.4%, the viability, T/C [11] was 52.2% and the viability, T/C [12] was 36.4%. The viability, T/C [13] was 89.8%, the viability, T/C [14] was 91.1% and the viability, T/C [15] was 79.3%. It also gave a viability, T/C [16] of 64.4%, a viability, T/C [17] of 44.9% and a viability, T/C [18] of 29.5%. For the same compound, the viability, T/C [19] was 110%, the viability, T/C [20] was 91.6% and the viability, T/C [21] was 76.3%. It also gave a viability, T/C [22] of 53.3%, a viability, T/C [23] of 52% and a viability, T/C [24] of 33.7%. It also gave a viability, T/C [25] of 117%, a viability, T/C [26] of 108% and a viability, T/C [27] of 103%. It also gave a viability, T/C [28] of 58.8%, a viability, T/C [29] of 53.6% and a viability, T/C [30] of 26.2%. For the same compound, the viability, T/C [31] was 106%, the viability, T/C [32] was 73.6% and the viability, T/C [33] was 76.3%. It also gave a viability, T/C [34] of 43.3%, a viability, T/C [35] of 26.4% and a viability, T/C [36] of 20.1%.
With `O=C(c1cc(Cc2n[nH]c(=O)c3ccccc23)ccc1F)N1CCN(C(=O)C2CC2)CC1` + Cc1cnc(CNC(=O)c2c(=O)c3ccc(N4CCCN(C)CC4)nc3n3c2sc2ccccc23)cn1 the IC50 (second compound 0.0316 µM) was greater than 10 µM, the IC50 (second compound 0.1 µM) was greater than 10 µM and the IC50 (second compound 0.316 µM) was 9.02 µM. It also gave an IC50 (second compound 1 µM) greater than 10 µM, an IC50 (second compound 3.16 µM) greater than 10 µM and an IC50 (second compound 10 µM) of less than 0.0316 µM. For the same compound, the viability, T/C [1] was 82.4%, the viability, T/C [2] was 89.4% and the viability, T/C [3] was 73%. The viability, T/C [4] was 68.7%, the viability, T/C [5] was 84.4% and the viability, T/C [6] was 63.2%. It also gave a viability, T/C [7] of 70.9%, a viability, T/C [8] of 75.6% and a viability, T/C [9] of 63.8%. It also gave a viability, T/C [10] of 63.1%, a viability, T/C [11] of 63% and a viability, T/C [12] of 67.8%. The viability, T/C [13] was 57%, the viability, T/C [14] was 60.9% and the viability, T/C [15] was 68.1%. The viability, T/C [16] was 65.2%, the viability, T/C [17] was 58.8% and the viability, T/C [18] was 49.1%. For the same compound, the viability, T/C [19] was 62.2%, the viability, T/C [20] was 51.3% and the viability, T/C [21] was 55.7%. The viability, T/C [22] was 54.1%, the viability, T/C [23] was 72.3% and the viability, T/C [24] was 56%. It also gave a viability, T/C [25] of 58.1%, a viability, T/C [26] of 57.8% and a viability, T/C [27] of 67.9%. For the same compound, the viability, T/C [28] was 53.2%, the viability, T/C [29] was 57.3% and the viability, T/C [30] was 48.9%. It also gave a viability, T/C [31] of 41.5%, a viability, T/C [32] of 49.6% and a viability, T/C [33] of 40.6%. It also gave a viability, T/C [34] of 56.8%, a viability, T/C [35] of 73.1% and a viability, T/C [36] of 47.3%.
